Consider 1 molecule from ChEMBL document CHEMBL2074231, “Influence of molecular structure on substrate binding to the human organic cation transporter, hOCT1” (Mol Pharmacol, 2003).

For orientation: IC50 means the concentration that gives 50% inhibition.

This assay concerns the target T1, Solute carrier family 22 member 1 (Homo sapiens, UniProt O15245).
T1 sequence (O15245 whole entry): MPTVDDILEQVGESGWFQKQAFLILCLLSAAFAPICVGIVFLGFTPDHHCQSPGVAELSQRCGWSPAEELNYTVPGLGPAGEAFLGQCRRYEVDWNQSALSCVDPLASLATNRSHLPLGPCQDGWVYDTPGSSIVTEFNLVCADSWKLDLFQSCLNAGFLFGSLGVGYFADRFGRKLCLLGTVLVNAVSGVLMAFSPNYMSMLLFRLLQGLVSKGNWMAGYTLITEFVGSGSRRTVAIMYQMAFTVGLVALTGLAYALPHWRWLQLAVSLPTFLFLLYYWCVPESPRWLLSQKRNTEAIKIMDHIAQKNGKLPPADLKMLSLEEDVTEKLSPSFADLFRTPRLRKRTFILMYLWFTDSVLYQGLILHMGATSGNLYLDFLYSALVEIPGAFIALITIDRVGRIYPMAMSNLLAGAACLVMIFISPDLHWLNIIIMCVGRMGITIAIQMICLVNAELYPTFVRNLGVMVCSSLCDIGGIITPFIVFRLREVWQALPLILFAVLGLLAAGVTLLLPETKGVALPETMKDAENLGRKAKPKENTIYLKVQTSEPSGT
The experiment in a line: TP_TRANSPORTER: inhibition of TEA uptake in OCT1-expressing HeLa cells.

Regarding `CN(C)CCCN1c2ccccc2Sc2ccc(Cl)cc21` [CHLORPROMAZINE], it took 4.3 µM to reach half-maximal inhibition (IC50).
